Data as given in article PMC12169614, “Exploring Long Arm Amide-Linked Side Chains in the Design of Antifungal Azole Inhibitors of Sterol 14α-Demethylase (CYP51)” (Journal of Medicinal Chemistry, 2025).

Key:
MCF-10A cells = assay: Viability (CellTiter Blue) assay; format: cell-based, human; settings: 48 h, 10 μM to 1 pM
Method: Human epithelial breast cells, MCF-10A, were routinely cultured in DMEM/F-12 (Fisher Scientific, Loughborough, UK) containing 5% heat-inactivated horse serum (ThermoFisher Scientific, UK), 20 ng/mL hEGF (Merck Life Science, Dorset, UK), 500 ng/mL hydrocortisone (Merck Life Science, Dorset, UK) and 10 μg/mL insulin (Merck Life Science, Dorset, UK) under tissue culture conditions (37 °C, 5% CO2 in a humidified incubator). Cells were passaged upon reaching confluency using 0.25% Trypsin/EDTA (Fisher Scientific, Loughborough, UK) for a maximum of 15 passages from defrosting. […].
Cells were seeded in 100 μL of complete medium per well in a black, flat-bottomed, 96-well tissue-culture-treated plate (Fisher Scientific, Loughborough, UK) at a density of 4000 cells/well and incubated under tissue culture conditions for 24 h. Cells were then treated by mixing in an additional 100 μL of drug/diluent control in complete medium to give final concentrations of 10 μM–1 pM. DMSO was used as a vehicle control, and as a positive toxic control, staurosporine was added at a final concentration of 10 μM. Cells were then incubated for 48 h under tissue culture conditions before the treatments were replaced with fresh media before performing the CellTiter Blue assay (Promega, Southampton, UK) was performed following the manufacturer's instructions. […]

CYP2D6 = CYP2D6 (Homo sapiens, UniProt P10635); assay: biochemical; settings: human liver drug metabolizing enzyme; read-out: CYP IC50 2D6
Y2769 OE CauCYP51 K143R = assay: MIC80 determination, strain Y2769; format: cell-based, S. cerevisiae
Method: (§1) Cells were seeded at an OD600 nm of 0.005 (1.5 × 10^4 CFU), and the plates were incubated at 30 °C with shaking at 200 rpm for 48 h for S. cerevisiae strains and 24 h for C. albicans . Cell growth was assessed by measuring the OD600 nm using a Synergy 2 multimode plate reader (BioTek Instruments, VT, USA). Each MIC80 was determined using triplicate measurements for pools of 4 clones of each strain in three separate experiments.

Y2513 OE ScCYP51 Y140H = assay: MIC80 determination, strain Y2513; format: cell-based, S. cerevisiae; settings: Saccharomyces cerevisiae
How it was run: (§2)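 MIC80 values rest on three separate experiments, each measuring pools of 4 clones per strain in triplicate. Starting inoculum was OD600 0.005, equivalent to 1.5 × 10^4 CFU; cultures grew at 30 °C, 200 rpm, for 24 h (C. albicans) or 48 h (S. cerevisiae), with OD600 as read-out.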

[1] = system: Y2411 azole sensitive control strain; assay: Agarose (disk) diffusion assay, strain Y2411; format: cell-based, S. cerevisiae; settings: 10 nmol/disk, 30 °C, 48 h
Source text: (§3) Final compounds were screened as racemic mixtures using agarose diffusion assays to visualize their inhibitory activity against a panel of recombinant S. cerevisiae strains i.e., S. cerevisiae strains expressing control levels of wild-type CYP51 (ScCYP51), overexpressed wild-type ScCYP51, overexpressed azole-resistant ScCYP51 Y140F/H mutations and overexpressed C. albicans efflux pumps MDR1a or CDR1B (Figure and Table S1).
(§4) The susceptibilities of S. cerevisiae and Candida species strains to azole compounds were observed as zones of growth inhibition in agarose diffusion assays. The disk diffusion assays were carried out as described by Keniya et al. Complete supplement mixture (CSM) agarose (0.6% agarose [wt/vol]; 20 mL of synthetic defined medium (SD); pH 6.8–7) was solidified in a rectangular Petri dish which was overlaid with CSM agarose (0.6% [wt/vol]; 5 mL; pH 6.8–7) seeded with yeast cells at an optical density (OD600) of 0.008 (118,000 cells per 1 mL of overlay). Azole compounds (10 nmol/disk) were applied to sterile BBL paper disks (Becton Dickinson Co., Sparks, MD) and placed on solidified overlays. Cell growth was assessed after incubation at 30 °C for 48 h.

Y2301 OE ScCYP51 Y140F = assay: MIC80 determination, strain Y2301; format: cell-based, S. cerevisiae; settings: Saccharomyces cerevisiae
How it was run: as §2

[2] = system: Y2301 ScCYP51 Y140F mutant; assay: Agarose (disk) diffusion assay, strain Y2301; format: cell-based, S. cerevisiae; settings: 10 nmol/disk, 30 °C, 48 h
Source text: as §3, §4

[3] = system: Y2747 OE AfCYP51B AfCPR AfERG6; assay: MIC80 determination, strain Y2747; format: cell-based, S. cerevisiae
How it was run: as §2

Y611 FHB3 = assay: MIC80 determination, C. albicans clinical isolate Y611 FHB3; format: cell-based; settings: Candida albicans, 24 h, pH 7
How it was run: as §2

[4] = system: Y570 ABC efflux pump CaCDR1B overexpressed; assay: Agarose (disk) diffusion assay, strain Y570; format: cell-based, S. cerevisiae; settings: 10 nmol/disk, 30 °C, 48 h
Source text: as §3, §4

Y2721 OE CpCYP51 = assay: MIC80 determination, strain Y2721; format: cell-based, S. cerevisiae
How it was run: as §2

Y2300 OE ScCYP51 = assay: MIC80 determination, strain Y2300; format: cell-based, S. cerevisiae; settings: Saccharomyces cerevisiae
How it was run: as §2

Y2765 OE CauMDR1 = assay: MIC80 determination, strain Y2765; format: cell-based, S. cerevisiae; settings: Saccharomyces cerevisiae
Method: as §1

Y2374 OE CgCYP51 = assay: MIC80 determination, strain Y2374; format: cell-based, S. cerevisiae; settings: Saccharomyces cerevisiae
How it was run: as §2

Y2411 Endog. ScCYP51 = assay: MIC80 determination, strain Y2411; format: cell-based, S. cerevisiae; settings: Saccharomyces cerevisiae
How it was run: as §2

CYP2C19 = CYP2C19 (Homo sapiens, UniProt P33261); assay: CYP IC50 profile, CYP2C19; format: biochemical; settings: human liver drug metabolizing enzyme; read-out: CYP IC50 2C19
Y570 OE CaCDR1B = assay: MIC80 determination, strain Y570; format: cell-based, S. cerevisiae
How it was run: as §2

[5] = system: Y2513 ScCYP51 Y140H mutant; assay: Agarose (disk) diffusion assay, strain Y2513; format: cell-based, S. cerevisiae; settings: 10 nmol/disk, 30 °C, 48 h
Source text: as §3, §4

CYP2C9 = CYP2C9 (Homo sapiens, UniProt P11712); assay: CYP IC50 profile, CYP2C9; format: biochemical; settings: human liver drug metabolizing enzyme; read-out: CYP IC50 2C9
Y525 OE CaMDR1a = assay: MIC80 determination, strain Y525; format: cell-based, S. cerevisiae
How it was run: as §2

[6] = Saccharomyces cerevisiae, 48 h, pH 6.8

CYP2C19, sequence (P33261 whole entry): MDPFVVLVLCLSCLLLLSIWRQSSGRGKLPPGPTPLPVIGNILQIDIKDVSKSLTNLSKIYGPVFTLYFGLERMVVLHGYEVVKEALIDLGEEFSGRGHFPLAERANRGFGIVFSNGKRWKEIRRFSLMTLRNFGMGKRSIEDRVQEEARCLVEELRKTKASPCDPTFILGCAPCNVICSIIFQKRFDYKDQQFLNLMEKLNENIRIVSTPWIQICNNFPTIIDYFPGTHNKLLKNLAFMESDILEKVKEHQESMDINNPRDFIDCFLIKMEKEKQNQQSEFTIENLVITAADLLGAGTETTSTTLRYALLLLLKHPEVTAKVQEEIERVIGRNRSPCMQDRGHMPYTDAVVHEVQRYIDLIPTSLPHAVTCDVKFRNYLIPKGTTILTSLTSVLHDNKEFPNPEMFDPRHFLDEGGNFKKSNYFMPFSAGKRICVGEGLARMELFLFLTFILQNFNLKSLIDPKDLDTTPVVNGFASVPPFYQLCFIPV
CYP2C9, sequence (P11712 whole entry): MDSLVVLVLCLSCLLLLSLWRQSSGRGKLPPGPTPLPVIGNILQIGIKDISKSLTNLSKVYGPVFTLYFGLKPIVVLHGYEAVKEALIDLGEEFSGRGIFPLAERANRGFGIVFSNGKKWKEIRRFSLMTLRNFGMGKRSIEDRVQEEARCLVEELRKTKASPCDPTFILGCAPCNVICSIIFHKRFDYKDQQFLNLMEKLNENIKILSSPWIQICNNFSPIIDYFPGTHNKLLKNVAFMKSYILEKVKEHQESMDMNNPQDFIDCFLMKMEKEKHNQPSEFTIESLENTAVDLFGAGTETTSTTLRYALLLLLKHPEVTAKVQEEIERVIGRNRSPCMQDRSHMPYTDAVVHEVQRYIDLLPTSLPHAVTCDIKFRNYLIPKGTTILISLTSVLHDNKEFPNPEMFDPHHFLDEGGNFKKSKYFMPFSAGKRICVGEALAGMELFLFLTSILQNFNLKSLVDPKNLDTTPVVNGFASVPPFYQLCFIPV
CYP2D6, sequence (P10635 whole entry): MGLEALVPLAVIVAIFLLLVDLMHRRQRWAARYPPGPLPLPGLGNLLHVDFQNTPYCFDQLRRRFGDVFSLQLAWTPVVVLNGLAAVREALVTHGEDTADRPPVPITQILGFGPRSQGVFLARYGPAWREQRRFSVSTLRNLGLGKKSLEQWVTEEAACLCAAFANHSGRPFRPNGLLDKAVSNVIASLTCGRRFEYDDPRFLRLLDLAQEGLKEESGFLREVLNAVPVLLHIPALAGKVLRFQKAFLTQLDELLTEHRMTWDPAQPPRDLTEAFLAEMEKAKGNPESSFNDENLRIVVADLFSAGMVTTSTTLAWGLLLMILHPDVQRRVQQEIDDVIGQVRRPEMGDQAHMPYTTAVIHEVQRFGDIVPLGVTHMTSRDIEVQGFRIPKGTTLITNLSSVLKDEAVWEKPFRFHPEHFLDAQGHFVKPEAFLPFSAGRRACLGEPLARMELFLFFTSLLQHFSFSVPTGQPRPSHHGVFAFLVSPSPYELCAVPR

O=C(NCC(O)(Cn1cncn1)c1ccc(F)cc1F)c1ccc(-c2ccc(OC(F)(F)F)cc2)cc1 (stereo not drawn) [Compound 22, N-(2-(2,4-Difluorophenyl)-2-hydroxy-3-(1H-1,2,4-triazol-1-yl)propyl)-4’-(trifluoromethoxy)-[1,1’-biphenyl]-4-carboxamide]
cell viability (tolerance in words) (MCF-10A cells): very well tolerated
IC50 (CYP2D6): > 25 µM
MIC (Y2769 OE CauCYP51 K143R; Candidozyma auris, read-out: MIC (nM) C. auris model Y2769): 225 ± 33 nM
MIC80 (Y2769 OE CauCYP51 K143R; Saccharomyces cerevisiae): 0.225 ± 0.033 µM
MIC80 (Y2513 OE ScCYP51 Y140H; 48 h, pH 6.8): 0.078 ± 0.056 µM
MIC (Y2513 OE ScCYP51 Y140H; read-out: MIC (nM) S. cerevisiae Y2513): 78 ± 56 nM
zone of growth inhibition (inhibitory activity in words) [1]: high potency
MIC80 (Y2301 OE ScCYP51 Y140F; 48 h, pH 6.8): 0.093 ± 0.046 µM
MIC (Y2301 OE ScCYP51 Y140F; read-out: MIC (nM) S. cerevisiae Y2301): 93 ± 46 nM
zone of growth inhibition (inhibitory activity in words) [2]: unaffected inhibition zone size
MIC ([3]; Aspergillus fumigatus, read-out: MIC (nM) A. fumigatus model Y2747): 72 ± 29 nM
MIC80 ([3]; Saccharomyces cerevisiae): 0.072 ± 0.029 µM
MIC80 (Y611 FHB3): 1.65 µM
zone of growth inhibition (inhibitory activity in words) [4]: conferred resistance
MIC80 (Y2721 OE CpCYP51; Saccharomyces cerevisiae): 0.099 µM
MIC (Y2721 OE CpCYP51; read-out: MIC (nM) C. parapsilosis model Y2721): 99 nM
MIC80 (Y2300 OE ScCYP51; 48 h, pH 6.8): 0.114 ± 0.014 µM
MIC (Y2300 OE ScCYP51; read-out: MIC (nM) S. cerevisiae Y2300): 114 ± 14 nM
MIC80 (Y2765 OE CauMDR1): 0.059 ± 0.014 µM
MIC80 (Y2374 OE CgCYP51): 0.101 µM
MIC (Y2374 OE CgCYP51; read-out: MIC (nM) C. glabrate model Y2374): 101 nM
MIC80 (Y2411 Endog. ScCYP51; strain Y2411 Endog. ScCYP51, SD pH 6.8, 30 °C, 48 h): 0.03 ± 0.023 µM
MIC (Y2411 Endog. ScCYP51; supplement csv, read-out: MIC (nM) S. cerevisiae Y2411): 30 ± 23 nM
IC50 (CYP2C19): 14.5 ± 2.23 µM
MIC (Y570 OE CaCDR1B; Candida albicans, read-out: MIC (nM) C. albicans model Y570): 5800 nM
MIC80 (Y570 OE CaCDR1B; [6]): 5.8 µM
zone of growth inhibition (inhibitory activity in words) [5]: unaffected inhibition zone size
IC50 (CYP2C9): > 25 µM
MIC80 (Y525 OE CaMDR1a; [6]): 0.451 µM
MIC (Y525 OE CaMDR1a; read-out: MIC (nM) C. albicans model Y525): 451 nM
